We go through 21 molecules from patent USRE47689E1, “Compounds for treating spinal muscular atrophy” (PTC Therapeutics, Inc., priority 2011, dated 2019).

Like-named read-outs stand apart in the source and are kept apart here.

The subject of data set [1] is SMN2 minigene (full length SMN2 minigene mRNA containing SMN2 exon 7). The data set is described as follows: SMN2 minigene mRNA splicing RT-qPCR assay in cultured cells. It counts as cell-based, human. The conditions noted are these: Homo sapiens, HEK293-H, read-out: EC1.5x for production of full length SMN2 mRNA. The gist of the method: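 HEK293H cells stably carrying the SMN2-A minigene treated 24 h at 37° C with compound (DMSO, 200× stock), then lysed. Multiplex RT-qPCR (SMN primers 0.4 μM final; 40 cycles) measures full-length exon 7-containing minigene mRNA, normalized to GAPDH and to vehicle; EC1.5x derived and binned by stars.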
(In qPCR the cycle at which signal appears reflects the starting amount.)

Data set [2] has as its system Smn protein. Description: Smn protein assay in cultured cells (SMN HTRF). It counts as cell-based, human. Conditions: 48 hours; for EC1.5x (concentration giving 1.5-fold Smn protein increase): SMA Type 1 patient fibroblast cells (GM03813), 7-point concentration curve, SMN HTRF, concentration producing 1.5 times Smn protein vs DMSO vehicle control, read-out: EC1.5x for Smn protein expression; for maximum fold (Fold) increase of Smn protein: SMA patient fibroblast cells, 7-point concentration data, fold increase relative to vehicle control (SMN HTRF). The gist of the method:
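Lysates in RIPA with protease inhibitors are incubated overnight at room temperature with HTRF anti-SMN antibodies. EC1.5x is derived from fold increase in ΔF over vehicle.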

Where [3] appears, read: HEK293H cells stably transfected with SMN2-A minigene, 24 hours, 7-point concentration curve, 1.5-fold relative to vehicle-treated cells.

As a reminder, the melting point is the temperature, or range, at which the solid turns liquid. With `Cc1cn2cc(-c3cc4ccc(N5CCN(C6COC6)CC5)cc4oc3=O)nc2c(C)n1` [Compound 823, 3-(6,8-dimethylimidazo[1,2-a]pyrazin-2-yl)-7-[4-(oxetan-3-yl)piperazin-1-yl]-2H-chromen-2-one], the melting point was in the range of 230 to 235 °C. Besides, in data set [1] (setting [3]), the EC (1.5-fold) fell in the range of 0.3 to 1 µM. For the same molecule, in data set [2], the EC1.5x (concentration giving 1.5-fold Smn protein increase) was 1000 to 3000 nM; the “maximum fold (Fold) increase of Smn protein” value (“maximum fold (Fold) increase” for short) was “**** (fold increase between >1.5 and ≤1.65)”.

For the molecule `C[C@H]1CN(c2ccc3cc(-c4ccc(F)c(Cl)c4)c(=O)oc3c2)CCN1` [Compound 485, 3-(3-chloro-4-fluorophenyl)-7-[(3S)-3-methylpiperazin-1-yl]-2H-chromen-2-one], the melting point was 143 to 145 °C. Further, the EC (1.5-fold) in data set [1] (setting [3]) was in the range of 1 to 3 µM. For the same molecule, the “maximum fold (Fold) increase” value in data set [2] was “* (maximum fold increase of ≤1.2)”.

Turning to `COCCNCCCc1ccc2cc(-c3cn4cc(C)nc(C)c4n3)c(=O)oc2c1` [Compound 931, 3-(6,8-dimethylimidazo[1,2-a]pyrazin-2-yl)-7-{3-[(2-methoxyethyl)amino]propyl}-2H-chromen-2-one], the melting point was in the range of 147 to 150 °C. The EC (1.5-fold) in data set [1] (setting [3]) was less than 0.1 µM. Besides, in data set [2], the EC1.5x (concentration giving 1.5-fold Smn protein increase) was in the range of 300 to 1000 nM; the “maximum fold (Fold) increase” value was “**** (fold increase between >1.5 and ≤1.65)”.

For `O=c1oc2cc(N3CCNCC3)ccc2cc1-c1cc2ccccc2o1` [Compound 602, 3-(1-benzofuran-2-yl)-7-(piperazin-1-yl)-2H-chromen-2-one], the melting point is 208 to 211 °C. Also, the EC (1.5-fold) in data set [1] (setting [3]) lay in the range of 0.3 to 1 µM. Further, in data set [2], the “maximum fold (Fold) increase” value was “* (maximum fold increase of ≤1.2)”.

As for `Cc1cn2cc(-c3cc4ccc(N5CCN(C(C)C)CC5)cc4oc3=O)nc2c(C)n1` [Compound 792, 3-(6,8-dimethylimidazo[1,2-a]pyrazin-2-yl)-7-[4-(propan-2-yl)piperazin-1-yl]-2H-chromen-2-one], the melting point was 240 to 242 °C. Further, the EC (1.5-fold) in data set [1] (setting [3]) was less than 0.1 µM. For the same molecule, in data set [2], the EC1.5x (concentration giving 1.5-fold Smn protein increase) was less than 300 nM; the “maximum fold (Fold) increase” value was “**** (fold increase between >1.5 and ≤1.65)”.

The molecule `CN(C)Cc1ccc2cc(-c3nc4ccccc4[nH]3)c(=O)oc2c1` [Compound 396, 3-(1H-benzimidazol-2-yl)-7-[(dimethylamino)methyl]-2H-chromen-2-one] had a melting point of 214 to 218 °C. Moreover, the EC (1.5-fold) in data set [1] (setting [3]) fell in the range of 1 to 3 µM. Besides, the “maximum fold (Fold) increase” value in data set [2] is “** (fold increase between >1.2 and ≤1.35)”.

Regarding `Cc1cn2cc(-c3cc4ccc(CCCN5CCN(C)CC5)cc4oc3=O)nc2c(C)n1` [Compound 860, 3-(6,8-dimethylimidazo[1,2-a]pyrazin-2-yl)-7-[3-(4-methylpiperazin-1-yl)propyl]-2H-chromen-2-one], the melting point was in the range of 219 to 223 °C. Besides, in data set [1] (setting [3]), the EC (1.5-fold) fell in the range of 0.3 to 1 µM. Further, in data set [2], the EC1.5x (concentration giving 1.5-fold Smn protein increase) was 1000 to 3000 nM; the “maximum fold (Fold) increase” value is “**** (fold increase between >1.5 and ≤1.65)”.

`CN1CCN(c2ccc3cc(-c4cn5ccsc5n4)c(=O)oc3c2)CC1` [Cpd 117, 3-(imidazo[2,1-b][1,3]thiazol-6-yl)-7-(4-methylpiperazin-1-yl)-2H-chromen-2-one] had a melting point of 256 to 258 °C. In addition, in data set [1] (setting [3]), the EC (1.5-fold) was in the range of 0.1 to 0.3 µM. Also, in data set [2], the EC1.5x (concentration giving 1.5-fold Smn protein increase) is 300 to 1000 nM; the “maximum fold (Fold) increase” value was “**** (fold increase between >1.5 and ≤1.65)”.

For the molecule `Cc1ccn2cc(-c3cc4ccc(N(C)CCN(C)C)cc4oc3=O)nc2n1` [Compound 226, 7-{[2-(dimethylamino)ethyl](methyl)amino}-3-(7-methylimidazo[1,2-a]pyrimidin-2-yl)-2H-chromen-2-one], the melting point was 188 to 191 °C. For the same molecule, the EC (1.5-fold) in data set [1] (setting [3]) is 3 to 30 µM. Further, the “maximum fold (Fold) increase” value in data set [2] is recorded as “* (maximum fold increase of ≤1.2)”.

`Cc1cn2cc(-c3cc4ccc(N5CC[C@H](N(C)C)C5)cc4oc3=O)cc2cn1` [Compound 666, 7-[(3S)-3-(dimethylamino)pyrrolidin-1-yl]-3-(3-methylpyrrolo[1,2-a]pyrazin-7-yl)-2H-chromen-2-one] displayed a melting point of 200 to 204 °C. Also, the EC (1.5-fold) in data set [1] (setting [3]) was less than 0.1 µM. For the same molecule, in data set [2], the EC1.5x (concentration giving 1.5-fold Smn protein increase) was less than 300 nM; the “maximum fold (Fold) increase” value is “**** (fold increase between >1.5 and ≤1.65)”.

Molecule `COc1ccc(-c2cc3ccc(N4CCNCC4)cc3oc2=O)c(OC)c1` [Compound 465, 3-(2,4-dimethoxyphenyl)-7-(piperazin-1-yl)-2H-chromen-2-one] gave a melting point of 171 to 173 °C. In addition, the EC (1.5-fold) in data set [1] (setting [3]) fell in the range of 3 to 30 µM. For the same molecule, the “maximum fold (Fold) increase” value in data set [2] was “* (maximum fold increase of ≤1.2)”.

In turn, `Cc1cn2cc(-c3cc4ccc(N5CCC(CN)CC5)cc4oc3=O)cc2c(C)n1` [Compound 784, 7-[4-(aminomethyl)piperidin-1-yl]-3-(1,3-dimethylpyrrolo[1,2-a]pyrazin-7-yl)-2H-chromen-2-one] showed a melting point of 256 to 259 °C. Also, in data set [1] (setting [3]), the EC (1.5-fold) was 1 to 3 µM. Moreover, in data set [2], the “maximum fold (Fold) increase” value is “** (fold increase between >1.2 and ≤1.35)”.

The molecule `Cc1cn2cc(-c3cc4ccc(C5CCN(CCO)CC5)cc4oc3=O)nc2cn1` [Compound 843, 7-[1-(2-hydroxyethyl)piperidin-4-yl]-3-(6-methylimidazo[1,2-a]pyrazin-2-yl)-2H-chromen-2-one] registered a melting point of 230 to 236 °C. Besides, the EC (1.5-fold) in data set [1] (setting [3]) was less than 0.1 µM. In addition, in data set [2], the EC1.5x (concentration giving 1.5-fold Smn protein increase) was less than 300 nM; the “maximum fold (Fold) increase” value is “**** (fold increase between >1.5 and ≤1.65)”.

`Cc1csc(-c2cc3ccc(N4CCN[C@H](C)C4)cc3oc2=O)n1` [Compound 300, 7-[(3R)-3-methylpiperazin-1-yl]-3-(4-methyl-1,3-thiazol-2-yl)-2H-chromen-2-one] came in with a melting point of 176 °C. Besides, the EC (1.5-fold) in data set [1] (24 h) was 1 to 3 µM. In addition, in data set [2], the “maximum fold (Fold) increase” value is listed as “* (maximum fold increase of ≤1.2)”.

`Cc1cn2cc(-c3cc4ccc(N5CCN(C(C)C)CC5)cc4oc3=O)cc2c(C)n1` [Compound 709, 3-(1,3-dimethylpyrrolo[1,2-a]pyrazin-7-yl)-7-[4-(propan-2-yl)piperazin-1-yl]-2H-chromen-2-one] had a melting point of 173 to 176 °C. In data set [1] (setting [3]), the EC (1.5-fold) was less than 0.1 µM. Moreover, in data set [2], the EC1.5x (concentration giving 1.5-fold Smn protein increase) was 300 to 1000 nM; the “maximum fold (Fold) increase” value was “**** (fold increase between >1.5 and ≤1.65)”.

In the case of `COc1cccc(-c2cc3c(F)cc(N4CCNCC4)cc3oc2=O)n1` [Compound 468, 5-fluoro-3-(6-methoxypyridin-2-yl)-7-(piperazin-1-yl)-2H-chromen-2-one], the melting point was 231 to 236 °C. In addition, in data set [1] (setting [3]), the EC (1.5-fold) fell in the range of 0.3 to 1 µM. In data set [2], the “maximum fold (Fold) increase” value was “** (fold increase between >1.2 and ≤1.35)”.

In the case of `Cc1cn2cc(-c3cc4ccc(CCCN(CCO)CCO)cc4oc3=O)nc2c(C)n1` [Compound 885, 7-{3-[bis(2-hydroxyethyl)amino]propyl}-3-(6,8-dimethylimidazo[1,2-a]pyrazin-2-yl)-2H-chromen-2-one], the melting point lay within 158 to 162 °C. Also, the EC (1.5-fold) in data set [1] (setting [3]) was 0.1 to 0.3 µM. Further, in data set [2], the EC1.5x (concentration giving 1.5-fold Smn protein increase) was 300 to 1000 nM and the “maximum fold (Fold) increase” value was “***** (fold increase >1.65)”.

The molecule `Cc1ccn2cc(-c3cc4ccc(N5CCN[C@@H](C)C5)cc4oc3=O)nc2n1` [Compound 229, 3-(7-methylimidazo[1,2-a]pyrimidin-2-yl)-7-[(3S)-3-methylpiperazin-1-yl]-2H-chromen-2-one] showed a melting point of 298 to 301 °C. Moreover, the EC (1.5-fold) in data set [1] (setting [3]) was 0.1 to 0.3 µM. Further, in data set [2], the “maximum fold (Fold) increase” value was “*** (fold increase between >1.35 and ≤1.5)”.

`O=c1oc2cc(N3CCN4CCC3CC4)ccc2cc1-c1cn2cccc(F)c2n1` [Compound 501, 7-(1,4-diazabicyclo[3.2.2]non-4-yl)-3-(8-fluoroimidazo[1,2-a]pyridin-2-yl)-2H-chromen-2-one] had a melting point of 175 to 178 °C. Also, the EC (1.5-fold) in data set [1] (24 h) lay in the range of 0.1 to 0.3 µM. In data set [2], the “maximum fold (Fold) increase” value was “** (fold increase between >1.2 and ≤1.35)”.

In the case of `O=c1oc2cc(N3CCNCC3)ccc2cc1-c1cn2cccnc2n1` [Cpd 89, 3-(imidazo[1,2-a]pyrimidin-2-yl)-7-(piperazin-1-yl)-2H-chromen-2-one], the melting point is 286 °C (dec.). Further, the EC (1.5-fold) in data set [1] (setting [3]) was 0.1 to 0.3 µM. Besides, in data set [2], the EC1.5x (concentration giving 1.5-fold Smn protein increase) was in the range of 300 to 1000 nM; the “maximum fold (Fold) increase” value is “**** (fold increase between >1.5 and ≤1.65)”.

As to `Cc1ccn2cc(-c3cc4ccc(N5CCN6CCC[C@H]6C5)cc4oc3=O)nc2c1` [Compound 534, 7-[(8aS)-hexahydropyrrolo[1,2-a]pyrazin-2(1H)-yl]-3-(7-methylimidazo[1,2-a]pyridin-2-yl)-2H-chromen-2-one], the melting point was 258 to 265 °C. The EC (1.5-fold) in data set [1] (setting [3]) is 1 to 3 µM. For the same molecule, the “maximum fold (Fold) increase” value in data set [2] was “*** (fold increase between >1.35 and ≤1.5)”.
